Results taken from PubChem BioAssay (NCI).
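Five concentrations, 48 hours, 96-well plates. The concentration for full growth arrest is given as TGI.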

Experiments:
Assay in all cases: growth of human tumour cells (NCI), 48 h
K-562 leukemia = tested on: K-562 leukemia
SK-OV-3 ovarian = tested on: SK-OV-3 ovarian
SNB-75 CNS = tested on: SNB-75 CNS
SK-MEL-2 melanoma = tested on: SK-MEL-2 melanoma
SW-620 colon = tested on: SW-620 colon
786-0 renal = tested on: 786-0 renal
NCI-H23 lung = tested on: NCI-H23 lung
SK-MEL-5 melanoma = tested on: SK-MEL-5 melanoma
T-47D breast = tested on: T-47D breast
HOP-62 NSCLC = tested on: HOP-62 NSCLC
SF-268 CNS = tested on: SF-268 CNS
A498 renal = tested on: A498 renal
OVCAR-4 ovarian = tested on: OVCAR-4 ovarian
HCT-15 colon = tested on: HCT-15 colon
DU-145 prostate = tested on: DU-145 prostate
SF-539 CNS = tested on: SF-539 CNS
SK-MEL-28 melanoma = tested on: SK-MEL-28 melanoma
HCT-116 colon = tested on: HCT-116 colon
BT-549 breast = tested on: BT-549 breast
NCI-H460 lung = tested on: NCI-H460 lung

SMILES	TGI (K-562 leukemia)	TGI (SK-OV-3 ovarian)	TGI (SNB-75 CNS)	TGI (SK-MEL-2 melanoma)	TGI (SW-620 colon)	TGI (786-0 renal)	TGI (NCI-H23 lung)	TGI (SK-MEL-5 melanoma)	TGI (T-47D breast)	TGI (HOP-62 NSCLC)	TGI (SF-268 CNS)	TGI (A498 renal)	TGI (OVCAR-4 ovarian)	TGI (HCT-15 colon)	TGI (DU-145 prostate)	TGI (SF-539 CNS)	TGI (SK-MEL-28 melanoma)	TGI (HCT-116 colon)	TGI (BT-549 breast)	TGI (NCI-H460 lung)
O=C(C=P(c1ccccc1)(c1ccccc1)c1ccccc1)c1ccc(-c2cccs2)cc1	15.9 µM	20.6 µM	8.86 µM	3.11 µM	21.7 µM	17.6 µM	56.2 µM	5.25 µM	9.61 µM	20.7 µM	27.1 µM	10.8 µM	7.52 µM	24.7 µM	22.3 µM	12.4 µM	15.7 µM	13.9 µM	40.7 µM	12.2 µM
CC(=O)O[C@@H]1C[C@]2(C(=O)c3ccccc3)C(=O)C(=O)S[C@]12c1ccccc1	85 µM	> 100 µM	> 100 µM	> 100 µM	> 100 µM	> 100 µM	> 100 µM	> 100 µM	94.3 µM	> 100 µM	> 100 µM	> 100 µM	> 100 µM	> 100 µM	> 100 µM	60.4 µM	> 100 µM	> 100 µM	> 100 µM	> 100 µM
O=C(COc1ccc(Cl)c(Cl)c1)Nc1ccc[n+](Cc2ccc(S(=O)(=O)F)c(Cl)c2)c1	> 100 µM	> 100 µM	> 100 µM	> 100 µM	> 100 µM	> 100 µM	> 100 µM	> 100 µM	> 100 µM	> 100 µM	> 100 µM	> 100 µM	> 100 µM	> 100 µM	> 100 µM	> 100 µM	> 100 µM	> 100 µM	> 100 µM	> 100 µM
CCOc1cc(C2CC(c3ccc(NS(=O)(=O)c4cc([N+](=O)[O-])ccc4C)cc3)=NN2S(=O)(=O)c2cc([N+](=O)[O-])ccc2C)ccc1O (stereo not given)	> 100 µM	> 100 µM	–	62 µM	> 100 µM	98.7 µM	> 100 µM	64.8 µM	65.1 µM	> 100 µM	> 100 µM	22 µM	> 100 µM	> 100 µM	> 100 µM	> 100 µM	> 100 µM	> 100 µM	> 100 µM	–
COc1cc(C(=O)NC2CCc3cc(OC)c(OC)c(OC)c3-c3ccc(OC)c(=O)cc32)cc(OC)c1OC (stereo not given)	22 µM	20.9 µM	18.3 µM	> 24.1 µM	> 100 µM	70.9 µM	12.8 µM	0.377 µM	> 100 µM	> 100 µM	42.4 µM	8.44 µM	> 85.1 µM	> 100 µM	–	0.0689 µM	> 100 µM	1.69 µM	–	15.3 µM
O=C(CSCC(=O)N/N=C/c1ccc2c(c1)OCO2)N/N=C/c1ccc2c(c1)OCO2	> 100 µM	> 100 µM	> 100 µM	> 100 µM	> 100 µM	> 100 µM	> 100 µM	> 100 µM	> 100 µM	> 100 µM	> 100 µM	> 100 µM	> 100 µM	> 100 µM	> 100 µM	> 100 µM	> 100 µM	> 100 µM	> 100 µM	> 100 µM
Cc1ccc(O)c(Cc2nc3ccccc3nc2-c2cccc(Cl)c2)c1	> 100 µM	> 100 µM	–	> 100 µM	> 100 µM	> 100 µM	> 100 µM	> 100 µM	> 100 µM	> 100 µM	> 100 µM	–	65.8 µM	46.1 µM	> 100 µM	> 100 µM	–	> 100 µM	> 100 µM	> 100 µM
COc1ccccc1/C=C/c1ccnc2ccccc12	30.7 µM	29.7 µM	17 µM	30.1 µM	26.9 µM	27.7 µM	27.9 µM	26.4 µM	–	29.6 µM	29.4 µM	29.5 µM	25.4 µM	25 µM	30.8 µM	27.8 µM	31.1 µM	26.5 µM	24.4 µM	28.9 µM
CCCCc1ccc(N=C(N)N)cc1	83.4 µM	> 100 µM	–	> 100 µM	> 100 µM	48.8 µM	> 100 µM	26.8 µM	> 100 µM	–	> 100 µM	> 100 µM	> 100 µM	> 100 µM	> 100 µM	–	> 100 µM	> 100 µM	90.7 µM	61.8 µM
C[C@H]1C[C@@H]2[C@H]([C@@H](O)C[C@@]3(C)[C@H]2CC[C@]3(O)C(=O)CO)[C@@]2(C)C=CC(=O)C=C12	> 100 µM	> 100 µM	–	> 100 µM	> 100 µM	> 100 µM	> 100 µM	> 100 µM	–	> 100 µM	–	> 100 µM	> 100 µM	> 100 µM	–	–	> 100 µM	> 100 µM	–	> 100 µM
Cc1c2ccccc2c(C2C3C(=O)N(c4ccc(Br)cc4)C(=O)C3ON2C(C(N)=O)c2ccccc2)c2ccccc12 (stereo not given)	> 100 µM	46 µM	17.3 µM	30.3 µM	> 100 µM	33.1 µM	26.9 µM	11.9 µM	36.4 µM	36.1 µM	> 100 µM	11.7 µM	> 100 µM	18.7 µM	26.7 µM	17.7 µM	74.6 µM	> 100 µM	43.4 µM	22.2 µM
COc1cc2c(c(OC)c1OC)-c1ccc(OC)c(=O)cc1C(NC(=O)COc1ccccc1)CC2 (stereo not given)	60.8 µM	0.766 µM	10.5 µM	> 15.8 µM	> 95.2 µM	93.8 µM	–	0.0371 µM	> 100 µM	> 100 µM	61.6 µM	2.46 µM	> 84 µM	> 100 µM	< 0.01 µM	< 0.01 µM	> 100 µM	–	5.12 µM	> 10.6 µM
CCOC(=O)c1cnc(N(C)C)nc1SC(=N)N	> 100 µM	> 100 µM	> 100 µM	> 100 µM	> 100 µM	> 100 µM	> 100 µM	> 100 µM	> 100 µM	> 100 µM	> 100 µM	> 100 µM	> 100 µM	> 100 µM	> 100 µM	> 100 µM	> 100 µM	> 100 µM	> 100 µM	> 100 µM
CC(=O)Nc1ccc2c(c1)/C(=C\c1ccc([N+](C)(C)C)cc1)c1ccccc1-2	> 100 µM	> 100 µM	> 100 µM	–	> 100 µM	> 100 µM	> 100 µM	61.8 µM	90.1 µM	> 100 µM	> 100 µM	> 100 µM	> 100 µM	> 100 µM	> 100 µM	–	> 100 µM	> 100 µM	> 100 µM	> 100 µM
C[C@@H]1C[C@H]2[C@@H]3CCC4=CC(=O)C=C[C@]4(C)[C@@]3(F)[C@@H](O)C[C@]2(C)[C@@]1(O)C(=O)CO	> 100 µM	> 100 µM	–	> 100 µM	> 100 µM	> 100 µM	> 100 µM	> 100 µM	–	> 100 µM	–	–	> 100 µM	> 100 µM	–	–	> 100 µM	> 100 µM	–	–
CC(C)(C)[Si](OC1CCOC1=O)(c1ccccc1)c1ccccc1 (stereo not given)	–	> 100 µM	> 100 µM	32.5 µM	> 100 µM	–	77.1 µM	26.1 µM	–	–	> 100 µM	63.8 µM	–	61.5 µM	–	72.3 µM	62.6 µM	26.6 µM	–	49.3 µM
CCCCN1C(=O)C2Cc3c([nH]c4ccccc34)C(c3cccc(O)c3)N2C1=O (stereo not given)	47.5 µM	30 µM	32.7 µM	32.9 µM	38.7 µM	34.4 µM	37.9 µM	31.1 µM	51.9 µM	33.1 µM	34.7 µM	32.8 µM	34.6 µM	37.2 µM	33.1 µM	34.3 µM	34.3 µM	34.9 µM	34.2 µM	37.1 µM
CNC(=O)OCc1nc(SC)n(C)c1CO	> 100 µM	> 100 µM	> 100 µM	> 66.8 µM	> 100 µM	–	> 100 µM	> 100 µM	–	> 100 µM	> 100 µM	> 100 µM	> 100 µM	> 100 µM	–	> 100 µM	> 100 µM	> 100 µM	–	> 100 µM
C[n+]1cccc(NC(=O)c2ccc(NC(=O)C34CCC(C(=O)Nc5ccc(C(=O)Nc6ccc[n+](C)c6)cc5)(CC3)CC4)cc2)c1	> 100 µM	–	78.7 µM	–	> 100 µM	> 100 µM	> 100 µM	> 100 µM	–	> 100 µM	> 100 µM	> 100 µM	> 100 µM	> 100 µM	–	> 100 µM	> 100 µM	> 100 µM	–	> 100 µM
CC(=O)Oc1ccccc1	> 100 µM	–	> 100 µM	> 100 µM	> 100 µM	> 100 µM	> 100 µM	> 100 µM	–	> 100 µM	> 100 µM	> 100 µM	> 100 µM	> 100 µM	–	> 100 µM	> 100 µM	> 100 µM	–	> 100 µM
Cc1ccc2c(c1)SC1=Nc3sc4cc(C)ccc4[n+]3CN12	–	> 100 µM	64.5 µM	17.8 µM	53.1 µM	> 100 µM	13.6 µM	3.28 µM	8.75 µM	54.6 µM	> 100 µM	87.1 µM	29.6 µM	> 100 µM	> 100 µM	25.4 µM	29.2 µM	35 µM	18.3 µM	> 100 µM
